For two compounds, Ki results are on record in ChEMBL document CHEMBL4414573, “Competitive Binding Assay with an Umbelliferone-Based Fluorescent Rexinoid for Retinoid X Receptor Ligand Screening” (J Med Chem, 2019).

This assay concerns the target T1, Retinoic acid receptor RXR-alpha (Homo sapiens, UniProt P19793).
T1 sequence (P19793 whole entry): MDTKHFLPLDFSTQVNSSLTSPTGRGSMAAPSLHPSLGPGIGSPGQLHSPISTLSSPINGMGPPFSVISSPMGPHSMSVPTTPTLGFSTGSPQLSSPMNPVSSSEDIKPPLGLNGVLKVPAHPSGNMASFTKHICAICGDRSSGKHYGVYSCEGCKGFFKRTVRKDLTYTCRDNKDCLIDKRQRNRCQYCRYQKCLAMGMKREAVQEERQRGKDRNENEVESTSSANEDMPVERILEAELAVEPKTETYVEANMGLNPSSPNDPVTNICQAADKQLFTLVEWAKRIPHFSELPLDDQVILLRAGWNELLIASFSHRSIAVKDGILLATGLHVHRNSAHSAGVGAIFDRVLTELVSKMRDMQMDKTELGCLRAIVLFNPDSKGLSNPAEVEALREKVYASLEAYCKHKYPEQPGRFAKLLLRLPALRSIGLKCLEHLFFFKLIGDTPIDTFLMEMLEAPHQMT
Description: Displacement of CU-6PMN from human RXRalpha LBD incubated for 2 hrs by fluorescence based assay.

In the case of `CCCCCCCCCCCCCCCC(=O)O` [PALMITIC ACID], the Ki entry is given as “Not Active”.
`CC/C=C\C/C=C\C/C=C\C/C=C\C/C=C\CCCC(=O)O` [ICOSAPENT]: the inhibition constant (Ki) (read-out: Ki) worked out at 7.63 µM.
